Experiments:
Homo sapiens [1] = species: Homo sapiens; assay: Selectivity ratio of Ki for human CB1 receptor to Ki for human CB2 receptor
Cannabinoid receptor 1 [2] = biological target: T1, Cannabinoid receptor 1 (Rattus norvegicus, UniProt P20272); assay: Displacement of [3H]-CP55940 from CB1 receptor of rat cerebellar membranes by liquid scintillation counting in presence of serine protease inhibitor PMSF; design: species or system Cerebellum, Membrane
Cannabinoid receptor 2 [3] = biological target: T2, Cannabinoid receptor 2 (Rattus norvegicus, UniProt Q9QZN9); assay: Displacement of [3H]-CP55940 from CB2 receptor of rat spleen membranes by liquid scintillation counting in presence of serine protease inhibitor PMSF; format: tissue-based, Membrane
T2 sequence (Q9QZN9 whole entry): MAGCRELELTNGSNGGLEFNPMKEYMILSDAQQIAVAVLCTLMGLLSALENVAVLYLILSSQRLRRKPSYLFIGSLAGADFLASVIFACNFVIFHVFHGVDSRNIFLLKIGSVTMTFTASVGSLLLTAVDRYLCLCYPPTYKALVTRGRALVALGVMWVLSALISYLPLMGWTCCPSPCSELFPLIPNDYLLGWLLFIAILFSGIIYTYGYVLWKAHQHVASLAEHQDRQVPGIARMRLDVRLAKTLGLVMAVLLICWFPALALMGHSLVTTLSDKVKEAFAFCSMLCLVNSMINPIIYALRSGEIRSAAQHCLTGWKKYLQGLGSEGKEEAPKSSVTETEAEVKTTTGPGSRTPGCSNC

Rattus norvegicus = species: Rattus norvegicus; assay: Selectivity ratio of Ki for CB2 receptor of rat spleen membranes to Ki for CB1 receptor of rat cerebellar membranes; format: tissue-based
Cannabinoid receptor 2 [4] = biological target: T3, Cannabinoid receptor 2 (Homo sapiens, UniProt P34972); assay: Displacement of [3H]-CP55940 from human CB2 receptor expressed in HEK cells by liquid scintillation counting; format: cell-based, HEK293
Cannabinoid receptor 2 [5] = biological target: T2, Cannabinoid receptor 2; assay: Inverse agonist activity at rat CB2 receptor expressed in CHO-K1 cells assessed as inhibition of forskolin-induced cAMP accumulation; format: functional, cell-based
Cannabinoid receptor 1 [6] = biological target: T1, Cannabinoid receptor 1; assay: Displacement of [3H]-CP55940 from CB1 receptor of rat brain
Cannabinoid receptor 1 [7] = biological target: T4, Cannabinoid receptor 1 (Homo sapiens, UniProt P21554); assay: Displacement of [3H]-CP55940 from human CB1 receptor by liquid scintillation counting
Cannabinoid receptor 1 [8] = biological target: T4, Cannabinoid receptor 1; assay: Binding affinity to CB1 receptor (unknown origin)
Cannabinoid receptor 1 [9] = biological target: T4, Cannabinoid receptor 1; assay: Binding affinity to human CB1 receptor
Cannabinoid receptor 2 [10] = biological target: T3, Cannabinoid receptor 2; assay: Binding affinity to human CB2 receptor
Cannabinoid receptor 2 [11] = biological target: Cannabinoid receptor 2 (Mus musculus, UniProt P47936); assay: Displacement of [3H]-CP55940 from mouse CB2 receptor by liquid scintillation counting
Cannabinoid receptor 1 [12] = biological target: T4, Cannabinoid receptor 1; assay: Displacement of [3H]-CP55940 from human CB1 receptor expressed in CHO-K1 cells by liquid scintillation counting; format: cell-based
[13] = Displacement of [3H]-CP55940 from cynomolgus monkey CB2 receptor by liquid scintillation counting; design: species or system Macaca fascicularis
Cannabinoid receptor 2 [14] = biological target: T3, Cannabinoid receptor 2; assay: Displacement of [3H]-CP55940 from human CB2 receptor expressed in CHO-K1 cells by liquid scintillation counting; format: cell-based
Cannabinoid receptor 2 [15] = biological target: T2, Cannabinoid receptor 2; assay: Displacement of [3H]-CP55940 from rat CB2 receptor expressed in CHO-K1 cells by liquid scintillation spectrophotometry; format: cell-based
Cannabinoid receptor 2 [16] = biological target: T3, Cannabinoid receptor 2; assay: Agonist activity at human CB2 receptor expressed in Sf9 membranes assessed as effect on [35S]-GTPgammaS binding after 30 mins by scintillation counting; format: functional, cell membranes
Cannabinoid receptor 1 [17] = biological target: T4, Cannabinoid receptor 1; assay: Agonist activity at human CB1 receptor assessed as inhibition of forskolin-induced cAMP production preincubated for 15 mins followed by forskolin challenge measured after 30 mins by HTRF assay; format: functional
[18] = Selectivity ratio of Ki for rat CB1 receptor to Ki for human CB2 receptor
Cannabinoid receptor 1 [19] = biological target: T1, Cannabinoid receptor 1; assay: Binding affinity to rat CB1 receptor
Cannabinoid receptor 2 [20] = biological target: T3, Cannabinoid receptor 2; assay: Agonist activity at human CB2 receptor assessed as inhibition of forskolin-induced cAMP production preincubated for 15 mins followed by forskolin challenge measured after 30 mins by HTRF assay; format: functional
Cannabinoid receptor 1 [21] = biological target: T4, Cannabinoid receptor 1; assay: Agonist activity at human CB1 receptor expressed in CHO-K1 cells assessed as inhibition of forskolin-induced cAMP accumulation by TR-FRET assay; format: functional, cell-based
Cannabinoid receptor 2 [22] = biological target: T3, Cannabinoid receptor 2; assay: Agonist activity at human CB2 receptor expressed in CHO-K1 cells assessed as inhibition of forskolin-induced cAMP accumulation by TR-FRET assay; format: functional, cell-based
Cannabinoid receptor 2 [23] = biological target: T3, Cannabinoid receptor 2; assay: Agonist activity at human CB2 receptor transfected in CHO-K1 cells assessed as cAMP change; format: functional, cell-based
Cannabinoid receptor 2 [24] = biological target: T3, Cannabinoid receptor 2; assay: Agonist activity at human CB2 receptor expressed in Saccharomyces cerevisiae MMY23 using fluorescein di-beta-D-glucopyranoside as substrate after 24 hrs by fluorescence-based assay
Cannabinoid receptor 1 [25] = biological target: T1, Cannabinoid receptor 1; assay: Displacement of [3H]SR141716A from rat brain CB1 receptor by liquid scintillation spectrophotometry
Mus musculus = assay: Antinociceptive activity against iv dosed ICR mouse measured at 20 mins by tail flick test; format: functional
Cannabinoid receptor 2 [26] = biological target: T3, Cannabinoid receptor 2; assay: Binding affinity to CB2 receptor (unknown origin)
Homo sapiens [27] = species: Homo sapiens; assay: Selectivity index, ratio of EC50 for human CB1 receptor to EC50 for human CB2 receptor
Cannabinoid receptor 1 [28] = biological target: T4, Cannabinoid receptor 1; assay: Agonist activity at human CB1 receptor transfected in CHO-K1 cells assessed as cAMP change; format: functional, cell-based
Cannabinoid receptor 2 [29] = biological target: T3, Cannabinoid receptor 2; assay: Agonist activity at human CB2 receptor expressed in human SK-N-MC cells by CRE-beta galactosidase reporter gene assay; format: functional, cell-based
Cannabinoid receptor 1 [30] = biological target: T4, Cannabinoid receptor 1; assay: Agonist activity at human CB1 receptor expressed in human SK-N-MC cells by CRE-beta galactosidase reporter gene assay; format: functional, cell-based
[31] = Half life in Sprague-Dawley rat at 10 mg/kg, po by UV-HPLC analysis; format: ADME, organism-based; design: dose 10 mg/kg, route oral; details: in vivo
[32] = AUC (0 to infinity) in Sprague-Dawley rat at 10 mg/kg, po by UV-HPLC analysis; format: ADME, organism-based; design: time infinity, dose 10 mg/kg, route oral; details: plasma
[33] = Cmax in Sprague-Dawley rat at 10 mg/kg, po by UV-HPLC analysis; format: ADME, organism-based; design: dose 10 mg/kg, route oral; details: in vivo

T3 sequence (P34972 whole entry): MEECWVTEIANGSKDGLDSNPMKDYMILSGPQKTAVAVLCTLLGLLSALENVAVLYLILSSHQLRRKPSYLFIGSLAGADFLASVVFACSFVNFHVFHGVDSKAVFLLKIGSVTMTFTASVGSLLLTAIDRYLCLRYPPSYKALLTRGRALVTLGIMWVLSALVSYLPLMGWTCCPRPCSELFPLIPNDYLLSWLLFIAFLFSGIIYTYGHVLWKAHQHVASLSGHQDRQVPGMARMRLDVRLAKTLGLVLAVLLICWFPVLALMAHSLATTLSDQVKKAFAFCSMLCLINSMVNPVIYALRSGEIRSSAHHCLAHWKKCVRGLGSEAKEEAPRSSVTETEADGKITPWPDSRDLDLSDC
T4 sequence (P21554 whole entry): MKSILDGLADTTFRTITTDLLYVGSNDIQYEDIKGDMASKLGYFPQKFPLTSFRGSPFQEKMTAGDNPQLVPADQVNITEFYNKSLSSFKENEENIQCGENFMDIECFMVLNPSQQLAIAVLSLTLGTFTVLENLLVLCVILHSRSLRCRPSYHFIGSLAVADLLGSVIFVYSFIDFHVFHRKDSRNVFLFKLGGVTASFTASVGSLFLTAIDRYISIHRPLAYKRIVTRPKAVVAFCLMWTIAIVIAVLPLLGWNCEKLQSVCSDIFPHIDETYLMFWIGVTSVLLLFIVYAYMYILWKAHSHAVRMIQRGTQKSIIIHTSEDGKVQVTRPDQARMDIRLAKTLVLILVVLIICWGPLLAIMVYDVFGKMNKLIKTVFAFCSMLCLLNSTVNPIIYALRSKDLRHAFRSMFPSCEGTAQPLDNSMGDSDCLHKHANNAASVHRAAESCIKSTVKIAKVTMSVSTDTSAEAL
T1 sequence (P20272 whole entry): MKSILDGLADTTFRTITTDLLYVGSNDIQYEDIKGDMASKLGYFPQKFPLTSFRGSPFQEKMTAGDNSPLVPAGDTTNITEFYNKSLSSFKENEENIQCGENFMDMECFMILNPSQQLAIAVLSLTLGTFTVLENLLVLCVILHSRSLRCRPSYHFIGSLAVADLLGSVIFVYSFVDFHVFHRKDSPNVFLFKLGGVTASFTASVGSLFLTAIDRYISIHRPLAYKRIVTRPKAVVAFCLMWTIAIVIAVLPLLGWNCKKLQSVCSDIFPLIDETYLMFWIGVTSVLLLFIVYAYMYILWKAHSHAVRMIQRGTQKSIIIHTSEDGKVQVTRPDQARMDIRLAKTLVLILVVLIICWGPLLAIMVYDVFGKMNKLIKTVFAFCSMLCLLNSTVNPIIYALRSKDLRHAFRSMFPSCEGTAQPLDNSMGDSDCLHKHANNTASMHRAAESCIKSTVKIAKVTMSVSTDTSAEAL
Sequence of Cannabinoid receptor 2 (Mus musculus, UniProt P47936) (P47936 whole entry): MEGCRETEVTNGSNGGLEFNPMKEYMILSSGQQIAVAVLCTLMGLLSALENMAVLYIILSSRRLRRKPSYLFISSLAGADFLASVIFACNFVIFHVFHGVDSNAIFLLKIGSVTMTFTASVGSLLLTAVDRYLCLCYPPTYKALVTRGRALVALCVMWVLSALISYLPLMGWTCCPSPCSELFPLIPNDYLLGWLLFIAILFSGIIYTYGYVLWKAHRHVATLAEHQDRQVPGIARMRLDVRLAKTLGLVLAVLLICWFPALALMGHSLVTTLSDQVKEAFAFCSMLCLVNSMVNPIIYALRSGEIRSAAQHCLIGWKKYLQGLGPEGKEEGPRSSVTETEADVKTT

Work on `O=C(Nc1sc2c(c1C(=O)N1CCC1)CC1CCC2O1)c1c(F)cccc1C(F)(F)F` (stereo unspecified) yielded a Ratio Ki (Homo sapiens [1]) of 10.
Molecule `CCCCC/C=C\C/C=C\C/C=C\C/C=C\CCCC(=O)NC1CC1` has a Ki (Cannabinoid receptor 1 [2]) of 2.2 nM, a Ki (Cannabinoid receptor 2 [3]) of 715 nM and a Ratio Ki (Rattus norvegicus) of 325.
For `CN1CCCCC1Cn1cc(C(=O)c2cc([N+](=O)[O-])ccc2I)c2ccccc21` (racemic), the Ki (Cannabinoid receptor 2 [4]) was 7.1 nM, the EC50 (Cannabinoid receptor 2 [5]) was 216 nM and the Ki (Cannabinoid receptor 1 [6]) was 280 nM. The Ki (Cannabinoid receptor 1 [7]) was 580 nM.
For `CCCCCn1cc(C(=O)c2cccc3ccccc23)c2ccccc21`, the Ki (Cannabinoid receptor 1 [8]) was 9.5 nM.
For `CCCCCCC(C)(C)c1cc(O)c([C@H]2CC(=O)[C@H]3C[C@@H]2C3(C)C)c(OC(=O)/C=C/C(=O)O)c1` [PRS-211375], the Ki (Cannabinoid receptor 1 [9]) was 334 nM, the Ki (Cannabinoid receptor 2 [10]) was 9 nM and the Ratio Ki (Homo sapiens [1]) was 37.
`Cc1c2n(c(=O)c3cc(OC(=O)C(C)(C)C)cc(OC(=O)C(C)(C)C)c13)CCCC2` gave a Ki (Cannabinoid receptor 2 [11]) of 4.8 nM, a Ki (Cannabinoid receptor 1 [12]) of 2630 nM and a Ki [13] of 5.4 nM. It also gave a Ratio Ki (Homo sapiens [1]) of 450, a Ki (Cannabinoid receptor 2 [14]) of 6.8 nM and a Ki (Cannabinoid receptor 2 [15]) of 2.4 nM.
In the case of `CCCn1c(C)c(C(=O)c2cc3ccsc3n2CCC)c2ccccc21`, the EC50 (Cannabinoid receptor 2 [16]) is reported as < 100 nM.
With `CC(C)(C)c1cn(C[C@H]2CCCO2)/c(=N/C(=O)c2cc(C(F)(F)F)ccc2OCc2ccccn2)s1` the IC50 (Cannabinoid receptor 1 [12]; read-out: EC50 (the source's name)) was > 27000 nM and the EC50 (Cannabinoid receptor 2 [14]) was 1 nM.
In the case of `CC(C)(CO)c1cc(NC(=O)C(C)(C)S(=O)(=O)C2CCOCC2)on1`, the EC50 (Cannabinoid receptor 1 [17]) is reported as > 50000 nM.
In the case of `CCCCCc1ccc2c(c1)OC(C)(C)[C@@H]1CC=C(C)C[C@@H]21`, the Ratio Ki [18] is reported as > 312, the Ki (Cannabinoid receptor 2 [10]) is reported as 32 nM and the Ki (Cannabinoid receptor 1 [19]) is reported as > 10000 nM.
With `CN(C1CCOCC1)C(C)(C)C(=O)Nc1cc(C(C)(C)CO)no1` the EC50 (Cannabinoid receptor 1 [17]) was > 50000 nM.
With `CC(=O)N1CCC(Cn2c(C(C)(C)C)nc3cc(S(=O)(=O)C4CCCC4)ccc32)CC1` the EC50 (Cannabinoid receptor 2 [20]) was 3 nM.
With `CCCCCCC(C)(C)c1cc(OC)c2c(c1)OC(C)(C)[C@@H]1CC=C(C)C[C@@H]21` the Ratio Ki (Homo sapiens [1]) was > 790.
For `CS(=O)(=O)N1CCc2c(cc(-c3cccc(Cl)c3)c(=O)n2CC2CCC2)C1`, the EC50 (Cannabinoid receptor 1 [21]) was > 10000 nM and the EC50 (Cannabinoid receptor 2 [22]) was < 100 nM.
Molecule `CC1CN1S(=O)(=O)c1ccc2c(c1)C1(OCCCO1)C(=O)N2CC1CC1` (stereo unspecified) has an EC50 (Cannabinoid receptor 2 [23]) of 2 nM.
With `O=S(=O)(c1ccc(Cl)cc1)c1cnc2c(NCC3CCOCC3)cccc2c1` the EC50 (Cannabinoid receptor 2 [24]) was < 1000 nM.
With `CC(=O)Oc1cc(O[C@H](C)CCCc2ccccc2)cc2c1[C@@H]1C[C@H](O)CC[C@H]1[C@H](C)N2` [LEVONANTRADOL] the Ki (Cannabinoid receptor 1 [25]) was 2.9 nM.
Work on `CCCCCc1cc(O)c2c(c1)OC(C)(C)[C@@H]1CCC(C)=C[C@@H]21` [DRONABINOL] yielded an ED50 (Mus musculus) of 0.02 mg/kg.
`COc1cccc2c(C(=O)N[C@@H]3C(C)(C)[C@@H]4CC[C@@]3(C)C4)cn(CCN3CCOCC3)c12` gave a Ki (Cannabinoid receptor 1 [8]) of 245 nM and a Ki (Cannabinoid receptor 2 [26]) of 11 nM.
With `CCC(C)Cn1c(C(C)(C)C)nc2cc(S(=O)(=O)c3ccnc(F)c3)ccc21` (stereo unspecified) the EC50 (Cannabinoid receptor 2 [23]) was 0.26 nM, the Ratio EC50 (Homo sapiens [27]) was > 38000 and the EC50 (Cannabinoid receptor 1 [28]) was > 10000 nM.
For `C[C@H](NS(=O)(=O)/C=C/c1n[nH]c2c1CCCC[C@@H]2Cc1cccc(F)c1)c1ccccc1`, the EC50 (Cannabinoid receptor 2 [29]) was 9 nM, the EC50 (Cannabinoid receptor 1 [30]) was > 5000 nM and the Ratio Ki (Homo sapiens [1]) was > 550.
For `Cc1ccc2c(c1)Cc1c(C(=O)NN3CCCCC3)nn(-c3ccc(Cl)cc3Cl)c1-2`, the Ki (Cannabinoid receptor 2 [26]) was 0.037 nM.
With `Cc1c(C(=O)c2cccc(Cl)c2Cl)c2ccsc2n1CCN1CCOCC1` the EC50 (Cannabinoid receptor 2 [16]) was < 100 nM.
With `O=C(N[C@H](CO)c1ccccc1)c1n[nH]c2c1CCCC[C@H]2Cc1cccc(Cl)c1` the EC50 (Cannabinoid receptor 2 [29]) was 12 nM and the EC50 (Cannabinoid receptor 1 [30]) was > 5000 nM.
With `Cc1sc(NC(=O)N2CCCN(C(=O)C3CCC(F)(F)CC3)CC2)nc1C(C)(C)C` the EC50 (Cannabinoid receptor 2 [20]) was 0.7 nM.
In the case of `C=C1CC[C@@H]2[C@@H](C1)c1c(OC)cc(C(C)(C)CCCCCC)cc1OC2(C)C`, the Ratio Ki (Homo sapiens [1]) is reported as > 1000.
With `CC(C)(CO)NC(=O)c1nn(-c2ccc(Cl)cc2)c2c1C1CCC2C1` (stereo unspecified) the half-life [31] was 4.8 h, the AUC(0-inf) [32] was 12000 ng·h/mL and the Cmax [33] was 1950 ng/mL.
